Results taken from ChEMBL document CHEMBL1649488, “In vitro activities of echinocandins against Candida krusei determined by three methods: MIC and minimal fungicidal concentration measurements and time-kill studies” (2009).
Values after ≈ are worked out from the molar mass of the structure shown. Starred links: 1 amine or outer side, 2 acyl side, 3 side chain; linkers in the order of their positions; H or OH if unused. Positions of bridges follow the written chain, without caps; N, C: chain ends. Non-standard residues stand in square brackets, D forms with d. Residues, ends and D or L forms follow the SMILES beside them. *: point of attachment. hTyr(3S-OH,4S-OH,3'-OSO3H) = N[C@H](C(=O)O)[C@H](O)[C@@H](O)c1ccc(O)c(OS(=O)(=O)O)c1; Orn(4R-OH,5R-OH) = O=C([C@H](C[C@@H](O)[C@@H](O)N[*:3])N[*:1])[*:2]; Pro(3S-OH,4S-Me) = C[C@H]1CN[C@H](C(=O)O)[C@H]1O; X1 = CCCCCOc1ccc(-c2cc(-c3ccc(C(=O)*)cc3)no2)cc1; Gln(3R-OH) = NC(=O)C[C@@H](O)[C@H](N)C(=O)O; Hyp = O=C(O)[C@@H]1C[C@@H](O)CN1

What was measured:
Assay type in all cases: functional
[1] = system: Pichia kudriavzevii; experiment: Antifungal activity against Candida krusei ATCC 6258 bloodstream forms assessed as minimum concentration producing >= 100% growth reduction after 48 hrs by M27-A3 microdilution method; conditions: ATCC 6258, 48 h
[2] = system: Pichia kudriavzevii; experiment: Fungicidal activity against Candida krusei CY118 bloodstream forms after 24 hrs by time-kill analysis; conditions: CY118, 24 h
[3] = system: Pichia kudriavzevii; experiment: Antifungal activity against Candida krusei ATCC 6258 bloodstream forms assessed as time to achieve 90% fungal growth reduction at 16 mg/L by time-kill analysis
[4] = system: Pichia kudriavzevii; experiment: Antifungal activity against Candida krusei ATCC 6258 bloodstream forms assessed as time to achieve 99.9% fungal growth reduction at 0.25 mg/L by time-kill analysis
[5] = system: Pichia kudriavzevii; experiment: Antifungal activity against Candida krusei ATCC 6258 bloodstream forms assessed as time to achieve 99% fungal growth reduction at 16 mg/L by time-kill analysis
[6] = system: Pichia kudriavzevii; experiment: Antifungal activity against Candida krusei ATCC 6258 bloodstream forms assessed as time to achieve 90% fungal growth reduction at 4 mg/L by time-kill analysis
[7] = system: Pichia kudriavzevii; experiment: Antifungal activity against Candida krusei ATCC 6258 bloodstream forms assessed as time to achieve 99% fungal growth reduction at 1 mg/L by time-kill analysis
[8] = system: Pichia kudriavzevii; experiment: Antifungal activity against Candida krusei ATCC 6258 bloodstream forms assessed as minimum concentration producing >= 50% growth reduction after 24 hrs by M27-A3 microdilution method; conditions: ATCC 6258, 24 h
[9] = system: Pichia kudriavzevii; experiment: Antifungal activity against Candida krusei ATCC 6258 bloodstream forms assessed as minimum concentration producing >= 50% growth reduction after 48 hrs by M27-A3 microdilution method; conditions: ATCC 6258, 48 h
[10] = system: Pichia kudriavzevii; experiment: Fungicidal activity against Candida krusei CK1 bloodstream forms after 24 hrs by time-kill analysis; conditions: CK1, 24 h
[11] = system: Pichia kudriavzevii; experiment: Antifungal activity against Candida krusei EU220 bloodstream forms after 24 hrs by time-kill analysis; conditions: EU220, 24 h
[12] = system: Pichia kudriavzevii; experiment: Antifungal activity against Candida krusei EU123 bloodstream forms after 24 hrs by time-kill analysis; conditions: EU123, 24 h
[13] = system: Pichia kudriavzevii; experiment: Antifungal activity against Candida krusei CK6 bloodstream forms after 24 hrs by time-kill analysis; conditions: CK6, 24 h
[14] = system: Pichia kudriavzevii; experiment: Fungicidal activity against Candida krusei EU220 bloodstream forms after 24 hrs by time-kill analysis; conditions: EU220, 24 h
[15] = system: Pichia kudriavzevii; experiment: Antifungal activity against Candida krusei CY118 bloodstream forms after 24 hrs by time-kill analysis; conditions: CY118, 24 h
[16] = system: Pichia kudriavzevii; experiment: Antifungal activity against Candida krusei ATCC 6258 bloodstream forms assessed as time to achieve 50% fungal growth reduction at 16 mg/L by time-kill analysis
[17] = system: Pichia kudriavzevii; experiment: Antifungal activity against Candida krusei CK18 bloodstream forms after 24 hrs by time-kill analysis; conditions: CK18, 24 h
[18] = system: Pichia kudriavzevii; experiment: Antifungal activity against Candida krusei ATCC 6258 bloodstream forms assessed as time to achieve 99% fungal growth reduction at 0.25 mg/L by time-kill analysis
[19] = system: Pichia kudriavzevii; experiment: Fungicidal activity against Candida krusei CK2 bloodstream forms after 24 hrs by time-kill analysis; conditions: CK2, 24 h
[20] = system: Pichia kudriavzevii; experiment: Antifungal activity against Candida krusei ATCC 6258 bloodstream forms assessed as time to achieve 90% fungal growth reduction at 0.25 mg/L by time-kill analysis
[21] = system: Pichia kudriavzevii; experiment: Fungicidal activity against Candida krusei CK6 bloodstream forms after 24 hrs by time-kill analysis; conditions: CK6, 24 h
[22] = system: Pichia kudriavzevii; experiment: Fungicidal activity against Candida krusei CK18 bloodstream forms after 24 hrs by time-kill analysis; conditions: CK18, 24 h
[23] = system: Pichia kudriavzevii; experiment: Fungicidal activity against Candida krusei ATCC 6258 bloodstream forms after 48 hrs by M27-A3 microdilution method
[24] = system: Pichia kudriavzevii; experiment: Antifungal activity against Candida krusei ATCC 6258 bloodstream forms assessed as time to achieve 90% fungal growth reduction at 1 mg/L by time-kill analysis
[25] = system: Pichia kudriavzevii; experiment: Antifungal activity against Candida krusei ATCC 6258 bloodstream forms assessed as time to achieve 99.9% fungal growth reduction at 4 mg/L by time-kill analysis
[26] = system: Pichia kudriavzevii; experiment: Antifungal activity against Candida krusei ATCC 6258 bloodstream forms assessed as time to achieve 50% fungal growth reduction at 0.25 mg/L by time-kill analysis
[27] = system: Pichia kudriavzevii; experiment: Antifungal activity against Candida krusei CK1 bloodstream forms after 24 hrs by time-kill analysis; conditions: CK1, 24 h
[28] = system: Pichia kudriavzevii; experiment: Fungicidal activity against Candida krusei EU123 bloodstream forms after 24 hrs by time-kill analysis; conditions: EU123, 24 h
[29] = system: Pichia kudriavzevii; experiment: Antifungal activity against Candida krusei ATCC 6258 bloodstream forms assessed as time to achieve 50% fungal growth reduction at 4 mg/L by time-kill analysis
[30] = system: Pichia kudriavzevii; experiment: Antifungal activity against Candida krusei ATCC 6258 bloodstream forms after 24 hrs by time-kill analysis; conditions: ATCC 6258, 24 h
[31] = system: Pichia kudriavzevii; experiment: Antifungal activity against Candida krusei ATCC 6258 bloodstream forms assessed as time to achieve 99.9% fungal growth reduction at 16 mg/L by time-kill analysis
[32] = system: Pichia kudriavzevii; experiment: Antifungal activity against Candida krusei CK2 bloodstream forms after 24 hrs by time-kill analysis; conditions: CK2, 24 h
[33] = system: Pichia kudriavzevii; experiment: Antifungal activity against Candida krusei ATCC 6258 bloodstream forms assessed as time to achieve 50% fungal growth reduction at 1 mg/L by time-kill analysis
[34] = system: Pichia kudriavzevii; experiment: Antifungal activity against Candida krusei ATCC 6258 bloodstream forms assessed as minimum concentration producing >= 100% growth reduction after 24 hrs by M27-A3 microdilution method; conditions: ATCC 6258, 24 h
[35] = system: Pichia kudriavzevii; experiment: Fungicidal activity against Candida krusei ATCC 6258 bloodstream forms after 24 hrs by time-kill analysis; conditions: ATCC 6258, 24 h
[36] = system: Pichia kudriavzevii; experiment: Antifungal activity against Candida krusei ATCC 6258 bloodstream forms assessed as time to achieve 99.9% fungal growth reduction at 1 mg/L by time-kill analysis
[37] = system: Pichia kudriavzevii; experiment: Antifungal activity against Candida krusei ATCC 6258 bloodstream forms assessed as time to achieve 99% fungal growth reduction at 4 mg/L by time-kill analysis

Compound: CCCCCOc1ccc(-c2cc(-c3ccc(C(=O)N[C@H]4C[C@@H](O)[C@@H](O)NC(=O)[C@@H]5[C@@H](O)[C@@H](C)CN5C(=O)[C@H]([C@H](O)CC(N)=O)NC(=O)[C@H]([C@H](O)[C@@H](O)c5ccc(O)c(OS(=O)(=O)O)c5)NC(=O)[C@@H]5C[C@@H](O)CN5C(=O)[C@H]([C@@H](C)O)NC4=O)cc3)no2)cc1 [MICAFUNGIN] (X1-[Orn(4R-OH,5R-OH)]T[Hyp][hTyr(3S-OH,4S-OH,3'-OSO3H)][Gln(3R-OH)][Pro(3S-OH,4S-Me)]; lactam 1-C)
- MIC50 [1]: 0.5 µg/mL (≈ 0.394 µM)
- MIC90 [1]: 0.5 µg/mL (≈ 0.394 µM)
- MFC [2]: 16 µg/mL (≈ 12.6 µM)
- Time [3]: 8.64 h
- Time [4]: 31 h
- Time [5]: 17.28 h
- Time [6]: 10.63 h
- Time [7]: 20.5 h
- MIC50 [8]: 0.25 µg/mL (≈ 0.197 µM)
- MIC90 [8]: 0.5 µg/mL (≈ 0.394 µM)
- MIC50 [9]: 0.5 µg/mL (≈ 0.394 µM)
- MIC90 [9]: 0.5 µg/mL (≈ 0.394 µM)
- MFC [10]: 0.5 µg/mL (≈ 0.394 µM)
- MIC [11]: 0.25 µg/mL (≈ 0.197 µM)
- MIC [12]: 0.12 µg/mL (≈ 0.0945 µM)
- MIC [13]: 0.5 µg/mL (≈ 0.394 µM)
- MFC [14]: 0.25 µg/mL (≈ 0.197 µM)
- MIC [15]: 1 µg/mL (≈ 0.787 µM)
- Time [16]: 2.6 h
- MIC [17]: 0.25 µg/mL (≈ 0.197 µM)
- Time [18]: 20.6 h
- MFC [19]: 0.5 µg/mL (≈ 0.394 µM)
- Time [20]: 10.3 h
- MFC [21]: 0.5 µg/mL (≈ 0.394 µM)
- MFC [22]: 0.5 µg/mL (≈ 0.394 µM)
- MFC50 [23]: 0.5 µg/mL (≈ 0.394 µM)
- MFC90 [23]: 0.5 µg/mL (≈ 0.394 µM)
- MFC ([23]; Pichia kudriavzevii, ATCC 6258, 48 h): 0.25 µg/mL (≈ 0.197 µM)
- Time [24]: 10.2 h
- Time [25]: 31.88 h
- Time [26]: 3.1 h
- MIC [27]: 0.25 µg/mL (≈ 0.197 µM)
- MFC [28]: 0.5 µg/mL (≈ 0.394 µM)
- Time [29]: 3.2 h
- MIC [30]: 0.12 µg/mL (≈ 0.0945 µM)
- Time [31]: 25.91 h
- MIC [32]: 0.5 µg/mL (≈ 0.394 µM)
- Time [33]: 3.1 h
- MIC50 [34]: 0.5 µg/mL (≈ 0.394 µM)
- MIC90 [34]: 0.5 µg/mL (≈ 0.394 µM)
- MFC [35]: 0.25 µg/mL (≈ 0.197 µM)
- Time [36]: 30.7 h
- Time [37]: 21.25 h
